According to patent US8658826B2, “Amino acid derivatives used as pharmaceutical substances” (Dritte Patentportfolio Beteiligungsgesellschaft mgH & Co. KG, priority 2008, dated 2014):

Assay: oral bioavailability study with rats: benzamidine plasma levels after oral valbenzamidoxime
Assay type: in vivo, rat
Details: oral 50 mg/kg
Description: For proving the resorption from the gastrointestinal tract and the subsequent reduction to benzamidine, the valbenamidoxime is orally administered to three rats. The metabolization of the ester into benzamidine in this case takes place in vivo as follows:
The anaesthesia was carried out using xylazine and ketamine. Both were administered by intramuscular injection. The silicone catheters were implanted in the vena jugularis and the arteria carotis. They have locally antithrombotic and anti-inflammatory properties, but are not systemically active. During the surgery, the eyes were protected with a cornea-protective ointment (Oculotect®), and 3-4 ml of Ringer lactate solution was applied subcutaneously for improving the postoperative energy supply. The animals were treated antiphlogistically (Finadyne®, 1 mg/kg of body weight) and antibiotically (Amoxicillin® 15%, 10 mg/kg of body weight) and postoperatively attended and kept warm until they woke up. The day after the surgery, the animals got Nutri Plus®, an energy paste (soy bean oil, molasses, cod-liver oil, meat extract, mineral premixture, vitamin premixture).
Male Wistar rats having an average weight of 200 g served as the test animals. The animals were kept individually in cages. Every second day they got concentrated food. […]
For separating the substances to be analyzed, the following HPLC method was used: […]

## CC(C)C(N)C(=O)O/N=C(\N)c1ccccc1 (stereo not shown) [valbenzamidoxime]
  resorption of the prodrug after oral administration and metabolization into benzamidine: completely resorbed after oral administration and metabolized into the active form benzamidine
